From ChEMBL document CHEMBL2074166, “Transport of fluorescein in MDCKII-MRP1 transfected cells and mrp1-knockout mice” (Biochem Biophys Res Commun, 2001)

Molecular target: Multidrug resistance-associated protein 1 (Homo sapiens, UniProt P33527)
Assay: TP_TRANSPORTER: intracellular accumulation in MRP1-expressing MDCKII cells
Assay type: functional, cell-based
Details: dog, mdck-ii

Multidrug resistance-associated protein 1, sequence (P33527 whole entry): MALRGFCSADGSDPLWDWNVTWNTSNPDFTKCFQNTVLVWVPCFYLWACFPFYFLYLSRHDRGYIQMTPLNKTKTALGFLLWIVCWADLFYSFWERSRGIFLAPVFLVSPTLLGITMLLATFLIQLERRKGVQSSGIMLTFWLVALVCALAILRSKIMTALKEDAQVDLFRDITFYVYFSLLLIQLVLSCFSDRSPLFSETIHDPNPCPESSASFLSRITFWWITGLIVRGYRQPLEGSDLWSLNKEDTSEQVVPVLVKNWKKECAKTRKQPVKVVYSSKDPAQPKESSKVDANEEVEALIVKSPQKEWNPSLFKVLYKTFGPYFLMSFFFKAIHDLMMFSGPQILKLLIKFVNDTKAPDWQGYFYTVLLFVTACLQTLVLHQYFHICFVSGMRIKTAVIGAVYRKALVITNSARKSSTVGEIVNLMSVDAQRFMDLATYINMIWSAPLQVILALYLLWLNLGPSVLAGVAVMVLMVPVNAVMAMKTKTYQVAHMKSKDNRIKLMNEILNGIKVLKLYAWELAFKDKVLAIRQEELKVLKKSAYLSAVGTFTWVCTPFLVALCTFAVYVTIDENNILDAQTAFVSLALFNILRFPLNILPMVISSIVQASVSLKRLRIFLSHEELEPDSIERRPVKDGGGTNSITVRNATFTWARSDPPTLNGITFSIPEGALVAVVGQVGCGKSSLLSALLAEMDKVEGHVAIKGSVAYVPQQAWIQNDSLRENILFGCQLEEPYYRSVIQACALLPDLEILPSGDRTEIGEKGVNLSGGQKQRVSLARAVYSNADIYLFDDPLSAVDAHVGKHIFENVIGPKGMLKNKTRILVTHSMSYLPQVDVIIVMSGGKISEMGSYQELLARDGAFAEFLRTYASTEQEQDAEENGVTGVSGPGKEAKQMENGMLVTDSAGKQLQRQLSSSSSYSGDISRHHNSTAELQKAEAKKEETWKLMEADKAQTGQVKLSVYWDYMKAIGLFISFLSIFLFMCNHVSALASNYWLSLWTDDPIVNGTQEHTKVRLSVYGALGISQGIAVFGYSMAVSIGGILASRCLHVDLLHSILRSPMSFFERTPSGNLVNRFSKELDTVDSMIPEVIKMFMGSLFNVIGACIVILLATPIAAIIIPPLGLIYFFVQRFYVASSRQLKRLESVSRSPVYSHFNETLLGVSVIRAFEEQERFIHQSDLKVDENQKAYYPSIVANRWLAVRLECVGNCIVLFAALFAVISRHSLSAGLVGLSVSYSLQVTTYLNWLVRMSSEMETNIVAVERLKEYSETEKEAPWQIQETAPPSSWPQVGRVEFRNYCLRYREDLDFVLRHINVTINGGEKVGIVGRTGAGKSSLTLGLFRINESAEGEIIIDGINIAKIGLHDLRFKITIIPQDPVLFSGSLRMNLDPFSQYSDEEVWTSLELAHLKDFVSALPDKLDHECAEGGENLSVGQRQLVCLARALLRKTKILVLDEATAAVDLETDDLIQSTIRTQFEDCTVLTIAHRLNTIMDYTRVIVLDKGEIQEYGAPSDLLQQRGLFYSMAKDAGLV

## O=C1OC2(c3ccc(O)cc3Oc3cc(O)ccc32)c2ccccc21 [FLUORESCEIN]
  Activity: substrate [+]
